Test [1] concerns A-10 smooth muscle cells. Nature of the test: AVP-induced [3H]-arachidonic acid liberation from A-10 cells. The test is classed as cell-based, rat. The note with it: for restoration of arachidonic acid release in (S)-BEL treated A-10 cells: 5 μM (S)-BEL pretreatment, then 1 μM AVP with PMA (1 μM) or DOG (10 μM), FIG. 7. On the procedure:
Quantification of [^3H]-Arachidonic Acid Liberation from A-10 Phospholipids—Rat aortic smooth muscle A-10 cells, cultured in 60 mm dishes (2.5×10^5 cells/dish), were radiolabeled with 0.5 μCi [^3H]-arachidonic acid per dish as previously described (29). Cells were washed once with DMEM containing 0.25% fatty acid free bovine serum albumin followed by two washes with DMEM alone. Cells were then incubated with the indicated concentrations of (R)-, (S)-, rac-BEL, or ethanol vehicle (0.1% final concentration) in DMEM for 20 min. This media was removed and the cells were then incubated with DMEM containing 10% heat-inactivated fetal bovine serum in the absence or presence of 1 μM AVP. In some tests, PMA (1 μM) or DOG (10 μM) was added to the medium containing AVP. After 5 mm, 1 ml of this medium was removed, lipids were extracted into 2 ml of chloroform/methanol/acetic acid (25:24:1 v/v) (38), and the remaining cells were scraped into 1 ml of deionized water prior to lipid extraction as described above. The chloroform layer was evaporated under nitrogen and the extracted lipids were separated by thin layer chromatography (petroleum ether/ethyl ether/glacial acetic acid 70:30:1). Regions containing fatty acids and phospholipids were scraped into vials and radioactivity was quantified by liquid scintillation spectrometry.
A-10 cells (2.5×10^5 cells/dish) were radiolabeled with [^3H]-arachidonic acid (0.5 μCi/dish) for 20 hrs. After washing to remove unincorporated [^3H]-arachidonic acid, cells were then incubated with either 1 μM or 5 μM (R)-BEL, (S)-BEL, rac-BEL, or ethanol vehicle (0.1%) in DMEM for 20 mm. This media was removed and the cells were then incubated with 3 ml of DMEM containing 10% heat-inactivated fetal bovine serum with or without 1 μM AVP. After 5 min, 1 ml of this medium was removed and lipids were extracted into 2 ml of chloroform/methanol/acetic acid (25:24:1). The remaining cells were scraped into 1 ml of deionized water and total lipids were extracted as described above. The chloroform layer was evaporated under nitrogen and the extracted lipids were separated by TLC. Regions containing fatty acids and phospholipids were scraped into vials and radioactivity was quantified by liquid scintillation spectrometry. Results are representative of four separate tests.
A-10 cells were radiolabeled with [^3H]-arachidonic acid, washed, and pre-incubated with 5 μM (S)-BEL or ethanol vehicle alone for 15 min as described in FIG. 5. DMEM media containing 10% heat-inactivated fetal bovine serum with or without 1 μM AVP was then added to the cells. After 5 min at 37° C., [^3H]-arachidonic acid released into the media and remaining within the cells (free and incorporated into phospholipids) was extracted into chloroform, separated by TLC, and quantified by liquid scintillation spectrometry as described in “Experimental Procedures”. Results are representative of three separate tests.

Test [2] deals with T1, α-chymotrypsin (Bos taurus, UniProt P00766).
T1 construct: purchased Sigma
Nature of the test: Inhibition of α-chymotrypsin by BEL. The test is classed as biochemical. The note with it: 2 μM chymotrypsin, up to 5-fold molar excess of inhibitor, 5 min 22° C., then 1000-fold dilution with 100 mM hydrazine; FIG. 3. The method, then:
Inhibition of α-Chymotrypsin by BEL—The kinetics of α-chymotrrpsin inactivation by (R)-, (S)-, and rac-BEL were performed similar to methods previously described (36). The concentration of α-chymotrypsin (MW=25,000) was determined using an A^1%=20 (1 cm pathlength) at 280 nm (37). Briefly, one milliliter of α-chymotrypsin (2 μM) was incubated with up to a 5-fold molar excess of (R)-,(S)-, or rac-BEL dissolved in acetonitrile or vehicle alone for 5 mm at 22° C. in 0.1 M sodium phosphate buffer, pH 7.2. […] Following incubation at 22° C. for 1 hr, chymotrypsin activity in each diluted sample was measured utilizing a SPECTRAmax GeminiXS microplate spectrofluorometer with N-succinyl-Ala-Ala-Pro-Phe-7-amidomethylcoumarin (50 μM) as substrate for 1 mm at 25° C. Excitation and emission wavelengths were 380 nm and 460 nm, respectively.
Chymotrypsin (2 μM) in 0.1 M sodium phosphate buffer, pH 7.2 was incubated with the indicated concentrations of racemic, (R)-, or (S)-BEL for 5 mm. This solution was then diluted 1000-fold in 0.1 M sodium phosphate buffer, pH 7.2 containing 100 mM hydrazine and incubated for 1 hr at 22° C. Chymotrypsin proteolytic activity was measured spectrofluorometrically using N-succinyl-Ala-Ala-Pro-Phe-7-amido-4-methylcoumarin (50 μM) as substrate.

The subject of test [3] is purified recombinant iPLA2β. Nature of the test: Assay of iPLA2β inhibition by BEL (radiolabeled phospholipid substrate). The test is classed as biochemical.
Procedure: Recombinant iPLA2 Enzymes—Recombinant iPLA2β was expressed and purified from Sf9 cells as previously described (35).
Assay of iPLA2β and iPLA2γ Inhibition by BEL—Purified recombinant iPLA2β or Sf9 cell membranes containing recombinant iPLA2γ were incubated with (R) BEL, (S) BEL, racemic BEL, or ethanol vehicle for 3 mm at 22° C. in the presence of 100 mM Tris-HCl (pH 7.0) and 4 mM EGTA (for iPLA2β) or 100 mM Tris-acetate (pH 8.0) and 4 mM EGTA (for iPLA2γ). The concentration of BEL used for each test ranged from 0 to 16 μM. L-α-1-palmitoyl-2-[1^14C]-arachidonyl-phosphatidylcholine (5 μM final concentration) or L-α-1-palmitoyl-2-[1-^14C]-oleoyl-phosphatidylcholine (5 μM final concentration) in ethanol was then added to each sample and incubated at 37° C. for 2 min. Reactions were terminated by extraction of radiolabeled products into butanol, and reactants and products were separated by thin layer chromatography using Whatman LK6D 60 Å Silica Gel plates with petroleum ether/ethyl ether/acetic acid (70:30:1) as the mobile phase. Regions corresponding to the migration of a fatty acid standard visualized by iodine staining were scraped into vials and radioactivity was quantified by scintillation spectrometry.
Panel A—Purified recombinant iPLA2β (1 μg/ml) in 100 mM Tris-HCl, pH 7.3 containing 1 mM EGTA was preincubated at 22° C. for 3 mm in the presence of the indicated concentrations of (R)-, (S)-, or rac-BEL or ethanol vehicle alone (1% final concentration). Radiolabeled substrate (L-α-1-palmitoyl-2-[1-^14C]-arachidonyl-phosphatidylcholine, 5 μM final concentration) was then added to each reaction and incubated at 37° C. for 2 min. Reactions were terminated by extraction of remaining substrate and products into butanol, separation by TLC, and quantification of released radiolabeled fatty acid by scintillation spectrometry as described in Experimental Procedures.
For test [4], the system named is MAPK (ERK2) phosphorylation. Description: AVP-induced MAPK phosphorylation in A-10 cells (Western). Conditions: 5 μM, 15 min, 1 μM AVP; FIG. 9. The test is classed as cell-based, rat.
The subject of test [5] is PKCδ. Description: AVP-induced PKC translocation in A-10 cells (Western), PKCδ. The note with it: 5 μM pretreatment 15 min, 1 μM AVP; FIG. 8. The test is classed as cell-based, rat. The method, then: (§1) Determination of PKC Translocation—Confluent A-10 cells in 10 cm dishes were washed twice with DMEM without serum, followed by incubation with either 5 μM (S)-BEL or ethanol vehicle in DMEM for 15 min at 37° C. This media was then removed and DMEM with or without 1 μM AVP was incubated with the cells for 5 min. After washing with ice-cold PBS, the cells were collected by scraping into 20 mM Tris-HCl, pH 7.4 containing 0.33 M sucrose, 5 mM EDTA, 0.5 mM 4(2-aminoethyl)benzenesulfonylfluoride, and 5 μg/ml leupeptin and were lysed by three cycles of flash freezing with liquid nitrogen and thawing. Each sample was then further homogenized utilizing a teflon homogenizer before isolating the low speed pellet (1,000×g), membrane (100,000×g pellet), and cytosol (100,000×g supernatant) fractions. The protein concentrations of the fractions were determined utilizing the bicinchoninic acid (BCA) assay (Pierce) with BSA as a standard. Samples were electrophoresed and subjected to ECL Western analysis utilizing rabbit polyclonal antibodies against PKCα and PKCε as described above for MAPK phosphorylation. For blots incubated with mouse monoclonal antibodies against PKCδ and PKCι., an anti-mouse IgG (Fab specific)-peroxidase conjugate was utilized in place of the protein A-peroxidase conjugate. […]

Test [6] concerns PKCε. Nature of the test: AVP-induced PKC translocation in A-10 cells (Western), PKCε. The note with it: 5 μM pretreatment 15 min, 1 μM AVP; FIG. 8. The test is classed as cell-based, rat. On the procedure:
as §1

This note sets out measurements from US7741344B2, “Process for preparing purified S-BEL and R-BEL and compositions thereof” (Washington University in St. Louis, priority 2002, dated 2010).

The structures appear in SMILES notation.

With `CCCCCCCC(=O)OC[C@H](CO)OC(=O)CCCCCCC` [DOG, 1,2-Dioctanoyl-sn-glycerol], the “restoration of arachidonic acid release in (S)-BEL treated A-10 cells” value in test [1] is recorded as “Neither PMA or DOG could restore”.

Consider `CCCCCCCCCCCCCC(=O)O[C@@H]1[C@@H](C)[C@@]2(O)[C@@H](C=C(CO)C[C@]3(O)C(=O)C(C)=C[C@@H]23)[C@@H]2C(C)(C)[C@]12OC(C)=O` [PMA, Phorbol-12-myristate-13-acetate], for which the “restoration of arachidonic acid release in (S)-BEL treated A-10 cells” value in test [1] is recorded as “Neither PMA or DOG could restore”.

Regarding `O=C1O/C(=C/Br)CC[C@H]1c1cccc2ccccc12` [(S)-BEL, (S)(E)-6-(bromomethylene)-3-(1-naphthalenyl)-2H-tetrahydropyran-2-one], the inhibition of chymotrypsin entry in test [2] is listed as “considerably less potent”. Further, the “selectivity for inhibition of iPLA2β” value in test [3] came to 10 fold. Moreover, the “inhibition of iPLA2β, fold more potent than (R)-BEL” value in test [3] (3 min preincubation, FIG. 4A) amounted to 10 fold. Also, in test [3] (in words), the “selectivity for iPLA2β in comparison to iPLA2γ” value was “approximately an order of magnitude more selective”. For the same compound, in test [1] (1 μM AVP, read-out: IC50, AVP-induced liberation of AA from A-10 cells), the IC50 is ~1 µM. In addition, the “inhibition of AVP-induced AA release” value in test [1] (1 μM inhibitor, 20 min pretreatment, 1 μM AVP, FIG. 5) was 50%. Further, the “AVP-induced AA release (in words)” value in test [1] (5 μM inhibitor, 1 μM AVP, FIG. 5) was “completely attenuated”. For the same compound, the “AVP-induced phosphorylation of ERK2” value in test [4] is on record as “not effected”. In addition, the “AVP-induced translocation of PKCδ to the membrane fraction” value in test [5] was “does not effect”. For the same compound, in test [6], the “AVP-induced translocation of PKCε to the membrane fraction” value is reported as “does not effect”.
